What follows are compounds tested against T1, recombinant murine Aurora A enzyme (Mus musculus, UniProt P97477) (assay: Aurora A DELFIA Kinase Assay). Conditions: mouse Aurora A, 250 μM ATP; threshold less than or equal to 100 nM; read-out: IC50.
T1 construct: hexahistidine (His6) (N); made in house; host or cells: insect cells, baculovirus (Bac-to-Bac, Invitrogen)
Format: biochemical
Excerpt: Recombinant mouse Aurora A with an amino-terminus hexahistidine tag (His-Aurora A) was expressed using a standard baculovirus vector and insect cell expression system (Bac-to-Bac®, Invitrogen).
Soluble, recombinant mouse Aurora A was purified from insect cells using Ni-NTA agarose (Qiagen) as described by the manufacturer and further purified over an S75 size exclusion column (Amersham Pharmacia Biotech).
Aurora A DELFIA® Kinase Assay
The enzymatic reaction mixture, with and without Aurora inhibitors, was incubated for 15 minutes at room temperature before termination with 100 μL of stop buffer (1% BSA, 0.05% Surfact-AMPS-20, and 100 mM EDTA). A total of 100 μL of the enzyme reaction mixture was transferred to wells of a Neutravidin-coated 96-well plate (Pierce) and incubated at room temperature for 30 minutes. The wells were washed with wash buffer (25 mM Tris, 150 mM sodium chloride, and 0.1% Tween 20) and incubated for 1 hour with 100 μL of antibody reaction mixture containing 1% BSA, 0.05% Surfact-AMPS-20, anti-phospho-PKA rabbit polyclonal antibody (1:2000, New England Biolabs), and europium labeled anti-rabbit IgG (1:2000, Perkin Elmer). The wells were washed and then the bound europium was liberated using 100 μL of Enhancement Solution (Perkin Elmer). Quantification of europium was done using a Wallac™ EnVision (Perkin Elmer).

T1 sequence (P97477 whole entry): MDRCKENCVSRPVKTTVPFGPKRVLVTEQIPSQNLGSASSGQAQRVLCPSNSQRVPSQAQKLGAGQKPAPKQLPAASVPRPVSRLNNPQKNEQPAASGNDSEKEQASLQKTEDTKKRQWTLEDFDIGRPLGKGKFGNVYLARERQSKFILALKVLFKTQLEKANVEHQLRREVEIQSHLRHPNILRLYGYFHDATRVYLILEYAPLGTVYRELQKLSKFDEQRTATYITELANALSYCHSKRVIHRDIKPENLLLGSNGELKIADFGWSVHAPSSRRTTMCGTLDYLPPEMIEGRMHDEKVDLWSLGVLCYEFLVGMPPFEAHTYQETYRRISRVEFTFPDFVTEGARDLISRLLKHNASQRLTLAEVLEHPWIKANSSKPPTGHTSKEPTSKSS

IC50, ≤ 100 nM:
CNCCNC(=O)c1ccc(Nc2ncc3c(n2)-c2ccc(Cl)cc2C(c2ccccc2F)=NC3)cc1 [Compound I-1, 4-[9-Chloro-7-(2-fluoro-phenyl)-5H-benzo[c]pyrimido[4,5-e]azepin-2-ylamino]-N-(2-methylamino-ethyl)-benzamide]
CN(CCN)C(=O)c1ccc(Nc2ncc3c(n2)-c2ccc(Cl)cc2C(c2ccccc2F)=NC3)cc1 [Compound I-2, N-(2-Amino-ethyl)-4-[9-chloro-7-(2-fluoro-phenyl)-5H-benzo[c]pyrimido[4,5-e]azepin-2-ylamino]-N-methyl-benzamide]
CNCCN(C)C(=O)c1ccc(Nc2ncc3c(n2)-c2ccc(Cl)cc2C(c2ccccc2F)=NC3)cc1 [Compound I-3, 4-[9-Chloro-7-(2-fluoro-phenyl)-5H-benzo[c]pyrimido[4,5-e]azepin-2-ylamino]-N-methyl-N-(2-methylamino-ethyl)-benzamide]
CN(C)CCNC(=O)c1ccc(Nc2ncc3c(n2)-c2ccc(Cl)cc2C(c2ccccc2F)=NC3)cc1 [Compound I-4, 4-[9-Chloro-7-(2-fluoro-phenyl)-5H-benzo[c]pyrimido[4,5-e]azepin-2-ylamino]-N-(2-dimethylamino-ethyl)-benzamide]
CN(C)CCN(C)C(=O)c1ccc(Nc2ncc3c(n2)-c2ccc(Cl)cc2C(c2ccccc2F)=NC3)cc1 [Compound I-5, 4-[9-Chloro-7-(2-fluoro-phenyl)-5H-benzo[c]pyrimido[4,5-e]azepin-2-ylamino]-N-(2-dimethylamino-ethyl)-N-methyl-benzamide]
CN(C)CCCNC(=O)c1ccc(Nc2ncc3c(n2)-c2ccc(Cl)cc2C(c2ccccc2F)=NC3)cc1 [Compound I-6, 4-[9-Chloro-7-(2-fluoro-phenyl)-5H-benzo[c]pyrimido[4,5-e]azepin-2-ylamino]-N-(3-dimethylamino-propyl)-benzamide]
CN(C)CCCN(C)C(=O)c1ccc(Nc2ncc3c(n2)-c2ccc(Cl)cc2C(c2ccccc2F)=NC3)cc1 [Compound I-7, 4-[9-Chloro-7-(2-fluoro-phenyl)-5H-benzo[c]pyrimido[4,5-e]azepin-2-ylamino]-N-(3-dimethylamino-propyl)-N-methyl-benzamide]
O=C(c1ccc(Nc2ncc3c(n2)-c2ccc(Cl)cc2C(c2ccccc2F)=NC3)cc1)N1CCNCC1 [Compound I-8, {4-[9-Chloro-7-(2-fluoro-phenyl)-5H-benzo[c]pyrimido[4,5-e]azepin-2-ylamino]-phenyl}-piperazin-1-yl-methanone]
CN1CCN(C(=O)c2ccc(Nc3ncc4c(n3)-c3ccc(Cl)cc3C(c3ccccc3F)=NC4)cc2)CC1 [Compound I-9, {4-[9-Chloro-7-(2-fluoro-phenyl)-5H-benzo[c]pyrimido[4,5-e]azepin-2-ylamino]-phenyl}-(4-methyl-piperazin-1-yl)-methanone]
CN1CCN(C(=O)c2ccc(Nc3ncc4c(n3)-c3ccc(Cl)cc3C(c3ccccc3Cl)=NC4)cc2)CC1 [Compound I-10, {4-[9-Chloro-7-(2-chloro-phenyl)-5H-benzo[c]pyrimido[4,5-e]azepin-2-ylamino]-phenyl}-(4-methyl-piperazin-1-yl)-methanone]
Cc1ccccc1C1=NCc2cnc(Nc3ccc(C(=O)N4CCN(C)CC4)cc3)nc2-c2ccc(Cl)cc21 [Compound I-11, [4-(9-Chloro-7-o-tolyl-5H-benzo[c]pyrimido[4,5-e]azepin-2-ylamino)-phenyl]-(4-methyl-piperazin-1-yl)-methanone]
COc1ccccc1C1=NCc2cnc(Nc3ccc(C(=O)N4CCN(C)CC4)cc3)nc2-c2ccc(Cl)cc21 [Compound I-12, {4-[9-Chloro-7-(2-methoxy-phenyl)-5H-benzo[c]pyrimido[4,5-e]azepin-2-ylamino]-phenyl}-(4-methyl-piperazin-1-yl)-methanone]
Cc1ccc2c(c1)C(c1ccccc1F)=NCc1cnc(Nc3ccc(C(=O)N4CCN(C)CC4)cc3)nc1-2 [Compound I-14, {4-[7-(2-Fluoro-phenyl)-9-methyl-5H-benzo[c]pyrimido[4,5-e]azepin-2-ylamino]-phenyl}-(4-methyl-piperazin-1-yl)-methanone]
CN1CCN(C(=O)Cc2cccc(Nc3ncc4c(n3)-c3ccc(Cl)cc3C(c3ccccc3F)=NC4)c2)CC1 [Compound I-15, 2-{3-[9-Chloro-7-(2-fluoro-phenyl)-5H-benzo[c]pyrimido[4,5-e]azepin-2-ylamino]-phenyl}-1-(4-methyl-piperazin-1-yl)-ethanone]
O=C(NC1CCNCC1)c1ccc(Nc2ncc3c(n2)-c2ccc(Cl)cc2C(c2ccccc2F)=NC3)cc1 [Compound I-16, 4-[9-Chloro-7-(2-fluoro-phenyl)-5H-benzo[c]pyrimido[4,5-e]azepin-2-ylamino]-N-piperidin-4-yl-benzamide]
NC1CCN(C(=O)c2ccc(Nc3ncc4c(n3)-c3ccc(Cl)cc3C(c3ccccc3F)=NC4)cc2)CC1 [Compound I-17, (4-Amino-piperidin-1-yl)-{4-[9-chloro-7-(2-fluoro-phenyl)-5H-benzo[c]pyrimido[4,5-e]azepin-2-ylamino]-phenyl}-methanone]
CN(C)C1CCN(C(=O)c2ccc(Nc3ncc4c(n3)-c3ccc(Cl)cc3C(c3ccccc3F)=NC4)cc2)CC1 [Compound I-18, {4-[9-Chloro-7-(2-fluoro-phenyl)-5H-benzo[c]pyrimido[4,5-e]azepin-2-ylamino]-phenyl}-(4-dimethylamino-piperidin-1-yl)-methanone]
CN1CCN(CCCNC(=O)c2ccc(Nc3ncc4c(n3)-c3ccc(Cl)cc3C(c3ccccc3F)=NC4)cc2)CC1 [Compound I-19, 4-[9-Chloro-7-(2-fluoro-phenyl)-5H-benzo[c]pyrimido[4,5-e]azepin-2-ylamino]-N-[3-(4-methyl-piperazin-1-yl)-propyl]-benzamide]
CN1CCN(CCCNC(=O)c2ccc(Nc3ncc4c(n3)-c3ccc(Cl)cc3C(c3ccccc3Cl)=NC4)cc2)CC1 [Compound I-20, 4-[9-Chloro-7-(2-chloro-phenyl)-5H-benzo[c]pyrimido[4,5-e]azepin-2-ylamino]-N-[3-(4-methyl-piperazin-1-yl)-propyl]-benzamide]
Cc1ccccc1C1=NCc2cnc(Nc3ccc(C(=O)NCCCN4CCN(C)CC4)cc3)nc2-c2ccc(Cl)cc21 [Compound I-21, 4-(9-Chloro-7-o-tolyl-5H-benzo[c]pyrimido[4,5-e]azepin-2-ylamino)-N-[3-(4-methyl-piperazin-1-yl)-propyl]-benzamide]
COc1ccccc1C1=NCc2cnc(Nc3ccc(C(=O)NCCCN4CCN(C)CC4)cc3)nc2-c2ccc(Cl)cc21 [Compound I-22, 4-[9-Chloro-7-(2-methoxy-phenyl)-5H-benzo[c]pyrimido[4,5-e]azepin-2-ylamino]-N-[3-(4-methyl-piperazin-1-yl)-propyl]-benzamide]
Cc1ccc2c(c1)C(c1ccccc1F)=NCc1cnc(Nc3ccc(C(=O)NCCCN4CCN(C)CC4)cc3)nc1-2 [Compound I-24, 4-[7-(2-Fluoro-phenyl)-9-methyl-5H-benzo[c]pyrimido[4,5-e]azepin-2-ylamino]-N-[3-(4-methyl-piperazin-1-yl)-propyl]-benzamide]
CN1CCN(CCCNC(=O)Cc2cccc(Nc3ncc4c(n3)-c3ccc(Cl)cc3C(c3ccccc3F)=NC4)c2)CC1 [Compound I-25, 2-{3-[9-Chloro-7-(2-fluoro-phenyl)-5H-benzo[c]pyrimido[4,5-e]azepin-2-ylamino]-phenyl}-N-[3-(4-methyl-piperazin-1-yl)-propyl]-acetamide]
O=C(c1ccc(Nc2ncc3c(n2)-c2ccc(Cl)cc2C(c2ccccc2F)=NC3)cc1)N1CCOCC1 [Compound I-26, {4-[9-Chloro-7-(2-fluoro-phenyl)-5H-benzo[c]pyrimido[4,5-e]azepin-2-ylamino]-phenyl}-morpholin-4-yl-methanone]
O=C(c1ccc(Nc2ncc3c(n2)-c2ccc(Cl)cc2C(c2ccccc2F)=NC3)cc1)N(CCO)CCO [Compound I-27, 4-[9-Chloro-7-(2-fluoro-phenyl)-5H-benzo[c]pyrimido[4,5-e]azepin-2-ylamino]-N,N-bis-(2-hydroxy-ethyl)-benzamide]
O=C(c1ccc(Nc2ncc3c(n2)-c2ccc(Cl)cc2C(c2ccccc2Cl)=NC3)cc1)N1CCOCC1 [Compound I-28, {4-[9-Chloro-7-(2-chloro-phenyl)-5H-benzo[c]pyrimido[4,5-e]azepin-2-ylamino]-phenyl}-morpholin-4-yl-methanone]
O=C(NCCN1CCOCC1)c1ccc(Nc2ncc3c(n2)-c2ccc(Cl)cc2C(c2ccccc2F)=NC3)cc1 [Compound I-29, 4-[9-Chloro-7-(2-fluoro-phenyl)-5H-benzo[c]pyrimido[4,5-e]azepin-2-ylamino]-N-(2-morpholin-4-yl-ethyl)-benzamide]
